#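 Cells were grown in 96-well plates and exposed to each compound for 48 hours at five concentrations; endpoints were interpolated linearly between bracketing concentrations, or set to the highest concentration if not reached. GI50 = concentration required for 50% inhibition of growth.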 Calls of active or inactive are those of the source. Cut-off read from the data, not from the text of the source: active = GI50 up to about 1.1 µM and inactive = higher.
# Assays:
# Experiment in all cases: NCI tumour cell line growth inhibition, 48 h
# [1] = tested on: 786-0
# [2] = tested on: BT-549
# [3] = tested on: DU-145
# [4] = tested on: HOP-62
# [5] = tested on: HOP-92
# [6] = tested on: HT-29
# [7] = tested on: Hs-578T
# [8] = tested on: LOX IMVI
# [9] = tested on: NCI-H23
# [10] = tested on: NCI-H460
# [11] = tested on: OVCAR-3
# [12] = tested on: OVCAR-8
# [13] = tested on: RXF 393
# [14] = tested on: SF-268
# [15] = tested on: SK-MEL-5
# [16] = tested on: SN12C
# [17] = tested on: SNB-75
# [18] = tested on: A549
# [19] = tested on: SK-MEL-28
# [20] = tested on: SK-MEL-2
SMILES,GI50 [1],GI50 [2],GI50 [3],GI50 [4],GI50 [5],GI50 [6],GI50 [7],GI50 [8],GI50 [9],GI50 [10],GI50 [11],GI50 [12],GI50 [13],GI50 [14],GI50 [15],GI50 [16],GI50 [17],GI50 [18],GI50 [19],GI50 [20]
O=[N+]([O-])c1ccc(-c2ccc([C@H]3CC(c4cc(F)c(Cl)cc4Cl)=NN3)o2)cc1,23.7 µM (inactive),25.4 µM (inactive),26.9 µM (inactive),17 µM (inactive),26.6 µM (inactive),37.4 µM (inactive),> 100 µM (inactive),3.63 µM (inactive),2.3 µM (inactive),0.435 µM (active),45.2 µM (inactive),10.8 µM (inactive),39.2 µM (inactive),19.1 µM (inactive),7.83 µM (inactive),24.3 µM (inactive),15.1 µM (inactive),–,–,–
O=C1NCCCNCCCNCCCNC(=O)c2cccc1n2,> 100 µM (inactive),> 100 µM (inactive),–,> 100 µM (inactive),–,> 100 µM (inactive),> 100 µM (inactive),> 100 µM (inactive),> 100 µM (inactive),> 100 µM (inactive),> 100 µM (inactive),> 100 µM (inactive),18.1 µM (inactive),> 100 µM (inactive),> 100 µM (inactive),> 100 µM (inactive),> 100 µM (inactive),> 100 µM (inactive),> 100 µM (inactive),63.2 µM (inactive)
CC(=O)Nc1ccc(C(=O)NN2C(=O)CSC2c2ccc(O)cc2)cc1 (centres undefined),> 100 µM (inactive),> 100 µM (inactive),> 100 µM (inactive),> 100 µM (inactive),> 100 µM (inactive),> 100 µM (inactive),> 100 µM (inactive),–,> 100 µM (inactive),> 100 µM (inactive),> 100 µM (inactive),> 100 µM (inactive),> 100 µM (inactive),> 100 µM (inactive),> 100 µM (inactive),> 100 µM (inactive),91.6 µM (inactive),> 100 µM (inactive),> 100 µM (inactive),> 100 µM (inactive)
CC(=O)Nc1cc2cc(N)ccc2oc1=O,> 100 µM (inactive),> 100 µM (inactive),> 100 µM (inactive),> 100 µM (inactive),> 100 µM (inactive),> 100 µM (inactive),> 100 µM (inactive),> 100 µM (inactive),> 100 µM (inactive),> 100 µM (inactive),> 100 µM (inactive),> 100 µM (inactive),0.0411 µM (active),> 100 µM (inactive),> 100 µM (inactive),> 100 µM (inactive),–,> 100 µM (inactive),> 100 µM (inactive),> 100 µM (inactive)
CCC1OC2C(CC=C(C)C)=C3OC(C)(O)C(C)(CC)C(O)C3=C3OC(=O)C=C1C32 (centres undefined),37.2 µM (inactive),23 µM (inactive),50.5 µM (inactive),–,17.3 µM (inactive),–,–,12.4 µM (inactive),21.6 µM (inactive),21.4 µM (inactive),–,–,–,27 µM (inactive),28.4 µM (inactive),–,–,37.6 µM (inactive),50.8 µM (inactive),26.1 µM (inactive)
CC(=O)c1c(=O)n(-c2ccc(C)cc2)c(O)c2c(N)n[nH]c12,> 100 µM (inactive),> 100 µM (inactive),> 100 µM (inactive),–,–,> 100 µM (inactive),> 100 µM (inactive),> 100 µM (inactive),> 100 µM (inactive),> 100 µM (inactive),> 100 µM (inactive),> 100 µM (inactive),> 100 µM (inactive),> 100 µM (inactive),> 100 µM (inactive),> 100 µM (inactive),> 100 µM (inactive),> 100 µM (inactive),> 100 µM (inactive),> 100 µM (inactive)
Cn1c(=O)c2[nH]c(C3CC(=O)CC(c4nc5c([nH]4)c(=O)n(C)c(=O)n5C)N3)nc2n(C)c1=O (centres undefined),> 100 µM (inactive),> 100 µM (inactive),> 100 µM (inactive),> 100 µM (inactive),–,> 100 µM (inactive),> 100 µM (inactive),> 100 µM (inactive),> 100 µM (inactive),> 100 µM (inactive),> 100 µM (inactive),> 100 µM (inactive),> 100 µM (inactive),> 100 µM (inactive),> 100 µM (inactive),> 100 µM (inactive),> 100 µM (inactive),> 100 µM (inactive),> 100 µM (inactive),> 100 µM (inactive)
c1ccc2sc(SCN(C3CCCCC3)C3CCCCC3)nc2c1,–,> 100 µM (inactive),> 100 µM (inactive),> 100 µM (inactive),> 100 µM (inactive),> 100 µM (inactive),> 100 µM (inactive),> 100 µM (inactive),> 100 µM (inactive),> 100 µM (inactive),> 100 µM (inactive),> 100 µM (inactive),> 100 µM (inactive),> 100 µM (inactive),> 100 µM (inactive),–,–,> 100 µM (inactive),> 100 µM (inactive),> 100 µM (inactive)

# Reference: ChEMBL document CHEMBL1201862, “PubChem BioAssay data set” (2004)
